Assay results reported in patent US10196363B2, “Dihydropyrimidin-2-one compounds and medical use thereof” (JAPAN TOBACCO INC., priority 2014, dated 2019).
Where two headings read alike, the source gives them in different places.

How the values were obtained:
[1] = molecular target: T1, mouse RORγ (Mus musculus, UniProt P51450); assay: In vitro assay of inhibitory effect against RORγ transcriptional activity (GAL4-mRORγ LBD luciferase reporter gene assay in CHO cells); type: cell-based; conditions: for mRORγ luciferase activity, %-of-control: value in parentheses beside the > EC50 bound, vehicle-control 0.2% DMSO alone = 100%
T1 construct: mouse RORγ, from Ile251 to Lys516; expressed in transfected cells; host or cells: CHO cells (Chinese hamster ovary), transient co-transfection with pG5-Luc
T1 sequence (P51450 251-516): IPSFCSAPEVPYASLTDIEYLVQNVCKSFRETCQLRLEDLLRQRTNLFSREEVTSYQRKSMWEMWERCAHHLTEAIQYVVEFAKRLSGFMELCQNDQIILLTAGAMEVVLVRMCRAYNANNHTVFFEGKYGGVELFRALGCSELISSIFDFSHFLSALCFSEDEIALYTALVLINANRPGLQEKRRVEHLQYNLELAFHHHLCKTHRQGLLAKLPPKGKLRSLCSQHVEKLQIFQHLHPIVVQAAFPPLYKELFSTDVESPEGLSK
Method in brief: (§1)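 Luciferase signal, expressed relative to 0.2% DMSO vehicle as 100%, was the read-out after a 2-day compound exposure of CHO cells co-expressing a GAL4-RORγ LBD fusion and a GAL4-responsive reporter. EC50 values came from curve fitting, omitting points showing cytotoxicity.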

[2] = molecular target: T2, human RORγ (Homo sapiens, UniProt P51449); assay: In vitro assay of inhibitory effect against RORγ transcriptional activity (GAL4-hRORγ LBD luciferase reporter gene assay in CHO cells); type: cell-based; conditions: for hRORγ luciferase activity, %-of-control: value in parentheses beside the > EC50 bound, vehicle-control 0.2% DMSO alone = 100%
T2 construct: human RORγ, from Ser253 to Lys518; expressed in transfected cells; host or cells: CHO cells (Chinese hamster ovary), transient co-transfection with pG5-Luc
T2 sequence (P51449 253-518): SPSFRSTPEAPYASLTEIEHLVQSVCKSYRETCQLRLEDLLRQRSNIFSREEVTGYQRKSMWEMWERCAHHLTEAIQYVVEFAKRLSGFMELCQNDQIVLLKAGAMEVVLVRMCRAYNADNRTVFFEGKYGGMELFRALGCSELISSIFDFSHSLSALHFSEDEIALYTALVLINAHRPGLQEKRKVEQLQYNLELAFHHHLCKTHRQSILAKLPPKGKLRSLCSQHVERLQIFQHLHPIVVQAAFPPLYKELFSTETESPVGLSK
Method in brief: as §1

[3] = GAL4-mRORγ LBD luciferase reporter, CHO cells, read-out: LUC EC50 mRORγ
[4] = GAL4-hRORγ LBD luciferase reporter, CHO cells, read-out: LUC EC50 hRORγ
[5] = GAL4-mRORγ LBD / pG5-Luc in CHO cells, 2 days incubation
[6] = GAL4-hRORγ LBD / pG5-Luc in CHO cells, 2 days incubation

EC50 [1, 3] | EC50 [2, 4] | EC50 [1, 5] | mRORγ luciferase activity, %-of-control [1] | EC50 [2, 6] | hRORγ luciferase activity, %-of-control [2] | SMILES
34 nM | 36 nM | – | – | – | – | CC(C)(C)CCc1ccc([C@]2(C)NC(=O)N(C3CC(C)(C)C3)C=C2[C@H]2C[C@H](C(=O)O)C2)cc1Cl (single isomer, unassigned) [Example 287]
16 nM | 11 nM | – | – | – | – | CC(C)C1=CN(CC(C)C(=O)O)C(=O)N[C@@]1(C)c1ccc(CCC(C)(C)C)c(Cl)c1 (single isomer, unassigned) [Example 299]
14 nM | 10 nM | – | – | – | – | CC(C)C1=CN(CC(C)C(=O)O)C(=O)N[C@@]1(C)c1ccc(CCC(C)(C)C)c(Cl)c1 (single isomer, unassigned) [Example 300]
6 nM | 3 nM | – | – | – | – | COCC(C)C1=CN(CCC(=O)O)C(=O)N[C@@]1(C)c1ccc(CCC(C)(C)C)c(Cl)c1 (single isomer, unassigned) [Example 305]
27 nM | 63 nM | – | – | – | – | COCC(C)C1=CN(CCC(=O)O)C(=O)N[C@@]1(C)c1ccc(CCC(C)(C)C)c(Cl)c1 (single isomer, unassigned) [Example 306]
13 nM | 5 nM | – | – | – | – | COCC(C)C1=CN(c2ccc(C(=O)O)cc2)C(=O)N[C@@]1(C)c1ccc(CCC(C)(C)C)c(Cl)c1 (single isomer, unassigned) [Example 307]
25 nM | 32 nM | – | – | – | – | COCC(C)C1=CN(c2ccc(C(=O)O)cc2)C(=O)N[C@@]1(C)c1ccc(CCC(C)(C)C)c(Cl)c1 (single isomer, unassigned) [Example 308]
277 nM | 476 nM | – | – | – | – | CC(C)C1=CN(CCC(=O)O)C(=O)N[C@@]1(C)c1ccc(CC(O)C(C)(C)C)c(Cl)c1 (single isomer, unassigned) [Example 310]
94 nM | 86 nM | – | – | – | – | CC(C)C1=CN(CCC(=O)O)C(=O)N[C@@]1(C)c1ccc(CC(O)C(C)(C)C)c(Cl)c1 (single isomer, unassigned) [Example 311]
538 nM | 248 nM | – | – | – | – | COC(=O)[C@H]1C[C@H](N2C=C([C@H]3C[C@@H](CO)C3)[C@](C)(c3ccc(CCC(C)(C)C)c(Cl)c3)NC2=O)C1 (single isomer, unassigned) [Example 312]
12 nM | 13 nM | – | – | – | – | COCCC1=CN(C23CCC(C(=O)O)(C2)C3)C(=O)N[C@@]1(C)c1ccc([C@H]2C[C@@H](C(C)(C)C)C2)c(Cl)c1 (single isomer, unassigned) [Example 344]
11 nM | 4 nM | – | – | – | – | COCC(C)C1=CN(C23CCC(C(=O)O)(C2)C3)C(=O)N[C@@]1(C)c1ccc(CCC(C)(C)C)c(Cl)c1 (single isomer, unassigned) [Example 351]
51 nM | 63 nM | – | – | – | – | COCC(C)C1=CN(C23CCC(C(=O)O)(C2)C3)C(=O)N[C@@]1(C)c1ccc(CCC(C)(C)C)c(Cl)c1 (single isomer, unassigned) [Example 352]
– | – | > 8000 nM | (59%) | > 8000 nM | (69%) | CC(C)C1=CN(CCCC(=O)O)C(=O)N[C@]1(C)c1ccc(CCC(C)(C)C)c(Cl)c1 [Example 14]
– | – | 12 nM | – | 12 nM | – | CC(C)C1=CN(CCCC(=O)O)C(=O)N[C@@]1(C)c1ccc(CCC(C)(C)C)c(Cl)c1 [Example 15]
– | – | > 3200 nM | (52%) | 3070 nM | – | CC(C)(C)CCc1ccc([C@@]2(C)NC(=O)N(CCCC(=O)O)C=C2C2CCCCC2)cc1Cl [Example 31]
– | – | 46 nM | – | 26 nM | – | CC(C)(C)CCc1ccc([C@]2(C)NC(=O)N(CCCC(=O)O)C=C2C2CCCCC2)cc1Cl [Example 32]
– | – | > 3200 nM | (52%) | > 3200 nM | (51%) | CC(C)C1=CN(CC(C)(C)CC(=O)O)C(=O)N[C@]1(C)c1ccc(CCC(C)(C)C)c(Cl)c1 [Example 35]
– | – | 24 nM | – | 21 nM | – | CC(C)C1=CN(CC(C)(C)CC(=O)O)C(=O)N[C@@]1(C)c1ccc(CCC(C)(C)C)c(Cl)c1 [Example 36]

EC50 [1, 3] | EC50 [2, 4] | EC50 [1, 5] | mRORγ luciferase activity, %-of-control [1] | EC50 [2, 6] | hRORγ luciferase activity, %-of-control [2] | SMILES
– | – | 282 nM | – | 154 nM | – | CC(C)CC1=CN(CCCC(=O)O)C(=O)N[C@]1(C)c1ccc(CCC(C)(C)C)c(Cl)c1 [Example 37]
– | – | 15 nM | – | 11 nM | – | CC(C)CC1=CN(CCCC(=O)O)C(=O)N[C@@]1(C)c1ccc(CCC(C)(C)C)c(Cl)c1 [Example 38]
– | – | > 8000 nM | (61%) | > 8000 nM | (59%) | CC(C)C1=CN([C@H]2C[C@H](C(=O)O)C2)C(=O)N[C@]1(C)c1ccc(CCC(C)(C)C)c(Cl)c1 [Example 41]
– | – | 28 nM | – | 31 nM | – | CC(C)C1=CN([C@H]2C[C@H](C(=O)O)C2)C(=O)N[C@@]1(C)c1ccc(CCC(C)(C)C)c(Cl)c1 [Example 42]
– | – | 835 nM | – | 564 nM | – | CC(C)CCC1=CN(CCCC(=O)O)C(=O)N[C@]1(C)c1ccc(CCC(C)(C)C)c(Cl)c1 [Example 43]
– | – | 90 nM | – | 51 nM | – | CC(C)CCC1=CN(CCCC(=O)O)C(=O)N[C@@]1(C)c1ccc(CCC(C)(C)C)c(Cl)c1 [Example 44]
– | – | 7510 nM | – | 7330 nM | – | CC(C)C1=CN([C@H]2C[C@@H](C(=O)O)C2)C(=O)N[C@]1(C)c1ccc(CCC(C)(C)C)c(Cl)c1 [Example 45]
– | – | 16 nM | – | 17 nM | – | CC(C)C1=CN([C@H]2C[C@@H](C(=O)O)C2)C(=O)N[C@@]1(C)c1ccc(CCC(C)(C)C)c(Cl)c1 [Example 46]
– | – | 764 nM | – | 1100 nM | – | CC(C)C1=CN(CCCCC(=O)O)C(=O)N[C@]1(C)c1ccc(CCC(C)(C)C)c(Cl)c1 [Example 47]
– | – | 16 nM | – | 12 nM | – | CC(C)C1=CN(CCCCC(=O)O)C(=O)N[C@@]1(C)c1ccc(CCC(C)(C)C)c(Cl)c1 [Example 48]
– | – | 832 nM | – | 983 nM | – | CC(C)C1=CN(CCc2ccc(C(=O)O)cc2)C(=O)N[C@]1(C)c1ccc(CCC(C)(C)C)c(Cl)c1 [Example 49]
– | – | 13 nM | – | 7 nM | – | CC(C)C1=CN(CCc2ccc(C(=O)O)cc2)C(=O)N[C@@]1(C)c1ccc(CCC(C)(C)C)c(Cl)c1 [Example 50]
– | – | 1080 nM | – | 1180 nM | – | CC(C)(C)CCc1ccc([C@@]2(C)NC(=O)N(CCCC(=O)O)C=C2C2(C)CC2)cc1Cl [Example 51]
– | – | 15 nM | – | 10 nM | – | CC(C)(C)CCc1ccc([C@]2(C)NC(=O)N(CCCC(=O)O)C=C2C2(C)CC2)cc1Cl [Example 52]
– | – | > 8000 nM | (81%) | > 8000 nM | (92%) | CC(C)C1=CN(CCC(C)(C)C(=O)O)C(=O)N[C@]1(C)c1ccc(CCC(C)(C)C)c(Cl)c1 [Example 54]
– | – | 26 nM | – | 22 nM | – | CC(C)C1=CN(CCC(C)(C)C(=O)O)C(=O)N[C@@]1(C)c1ccc(CCC(C)(C)C)c(Cl)c1 [Example 55]
– | – | 4290 nM | – | 5160 nM | – | CC(C)(C)CCc1ccc([C@@]2(C)NC(=O)N(CCCC(=O)O)C=C2C2CC2)cc1Cl [Example 56]
– | – | 22 nM | – | 31 nM | – | CC(C)(C)CCc1ccc([C@]2(C)NC(=O)N(CCCC(=O)O)C=C2C2CC2)cc1Cl [Example 57]
– | – | 1650 nM | – | 1250 nM | – | CC(C)(C)CCc1ccc([C@@]2(C)NC(=O)N(CCCC(=O)O)C=C2C2CCC2)cc1Cl [Example 58]
